Experimental data as given in the supplement of paper PMC11208160.

experiment: recombinant barcode read abundance after kanamycin selection (control-corrected) (log10(CPM+1)); higher = more efficient recombination; sequences stand for … in AGTGCAGAGAAAATCGGCCAGTTTTCTCTGCCTGCAGTCCGCATGCCGT…ATTTATGCAGCGGACTGCCTTTCTCCCAAAGTGATAAACCGGACAGTATCATGGACCGGTTTTCCCGGTAATCCGTATTTGCAAGGTTGGTTTCACT; site = the 11-nt target
Experimental: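 Same pooled E. coli target screen (IS621 bridge recombinase, kanamycin selection, control-corrected CPM, mean of 2 biological replicates). Here the two core-binding nucleotides of the LTG and RTG of the bridge RNA target-binding loop are mutated. Target and donor CT cores are held constant, and the other 9 guide positions match the target. The target is read from the library oligo sequence. Molecule = full bridge RNA written as DNA: nt 1-80 from the library oligo, rest WT scaffold.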

Point of comparison: “AAACACAGGTGGGTTCTAACCTGTTGCCTCC [AAACACACTAG_LTGcore_GG_RTGcore_GG] (site AAACACACTAG) (LTG core: GG, RTG core: GG)”, “recombinant barcode read abundance (log10)” value 0.0137. Against it:
- ATGCTTTCTTGGGTTCTAACCTGTTGCCTCG [ATGCTTTCTAG_LTGcore_CT_RTGcore_CG] (site ATGCTTTCTAG) (LTG core: CT, RTG core: CG) — within 0.2 log units, 0.21
- GCGGGACCGTGGGTTCTAACCTGTTGCCTAG [GCGGGACCTAG_LTGcore_CG_RTGcore_CT] (site GCGGGACCTAG) (LTG core: CG, RTG core: CT) — higher, 0.76
- AAACATGGTTGGGTTCTAACCTGTTGCCTAG [AAACATGCTAG_LTGcore_GT_RTGcore_CT] (site AAACATGCTAG) (LTG core: GT, RTG core: CT) — within 0.2 log units, 0.108
- CGGTCCCCTTGGGTTCTAACCTGTTGCCACT [CGGTCCCCTTG_LTGcore_CT_RTGcore_AG] (site CGGTCCCCTTG) (LTG core: CT, RTG core: AG) — within 0.2 log units, 0.0728
- ACGGGACTGTGGGTTCTAACCTGTTGCAGAG [ACGGGACCTCT_LTGcore_TG_RTGcore_CT] (site ACGGGACCTCT) (LTG core: TG, RTG core: CT) — higher, 0.397
- TTATAAACTTGGGTTCTAACCTGTTGCCTTT [TTATAAACTAG_LTGcore_CT_RTGcore_AA] (site TTATAAACTAG) (LTG core: CT, RTG core: AA) — within 0.2 log units, 0.0604
- AGGCGGTACTGGGTTCTAACCTGTTGCTTGT [AGGCGGTCTAA_LTGcore_AC_RTGcore_AC] (site AGGCGGTCTAA) (LTG core: AC, RTG core: AC) — within 0.2 log units, 0.166
- GAGTCCAGTTGGGTTCTAACCTGTTGCGTAG [GAGTCCACTAC_LTGcore_GT_RTGcore_CT] (site GAGTCCACTAC) (LTG core: GT, RTG core: CT) — higher, 0.283
- ACGGGACTTTGGGTTCTAACCTGTTGCAGAA [ACGGGACCTCT_LTGcore_TT_RTGcore_TT] (site ACGGGACCTCT) (LTG core: TT, RTG core: TT) — within 0.2 log units, 0.0398
- AAACACAATTGGGTTCTAACCTGTTGCCTAT [AAACACACTAG_LTGcore_AT_RTGcore_AT] (site AAACACACTAG) (LTG core: AT, RTG core: AT) — within 0.2 log units, 0.209
- AAACATGCTTGGGTTCTAACCTGTTGCCTCG [AAACATGCTAG_LTGcore_CT_RTGcore_CG] (site AAACATGCTAG) (LTG core: CT, RTG core: CG) — higher, 1.02
- GGCTCCCGTTGGGTTCTAACCTGTTGCGGAC [GGCTCCCCTCC_LTGcore_GT_RTGcore_GT] (site GGCTCCCCTCC) (LTG core: GT, RTG core: GT) — higher, 0.259
- GGTGCCCCCTGGGTTCTAACCTGTTGCCGGG [GGTGCCCCTCG_LTGcore_CC_RTGcore_CC] (site GGTGCCCCTCG) (LTG core: CC, RTG core: CC) — higher, 0.387
- TGATACCTTTGGGTTCTAACCTGTTGCGTAG [TGATACCCTAC_LTGcore_TT_RTGcore_CT] (site TGATACCCTAC) (LTG core: TT, RTG core: CT) — within 0.2 log units, 0.0115
- AAACACATTTGGGTTCTAACCTGTTGCCTAA [AAACACACTAG_LTGcore_TT_RTGcore_TT] (site AAACACACTAG) (LTG core: TT, RTG core: TT) — higher, 0.889
- GGCTCCCCATGGGTTCTAACCTGTTGCGGAG [GGCTCCCCTCC_LTGcore_CA_RTGcore_CT] (site GGCTCCCCTCC) (LTG core: CA, RTG core: CT) — within 0.2 log units, 0.0917
- GGCTCCCTTTGGGTTCTAACCTGTTGCGGAA [GGCTCCCCTCC_LTGcore_TT_RTGcore_TT] (site GGCTCCCCTCC) (LTG core: TT, RTG core: TT) — within 0.2 log units, 0.0992
- TCTACCCCTTGGGTTCTAACCTGTTGCTGGG [TCTACCCCTCA_LTGcore_CT_RTGcore_CC] (site TCTACCCCTCA) (LTG core: CT, RTG core: CC) — higher, 0.28
- CGCGCCCGCTGGGTTCTAACCTGTTGCGGAG [CGCGCCCCTCC_LTGcore_GC_RTGcore_CT] (site CGCGCCCCTCC) (LTG core: GC, RTG core: CT) — within 0.2 log units, 0.198
- AAACACAGCTGGGTTCTAACCTGTTGCCTAG [AAACACACTAG_LTGcore_GC_RTGcore_CT] (site AAACACACTAG) (LTG core: GC, RTG core: CT) — within 0.2 log units, 0.0255
- TCGCGACACTGGGTTCTAACCTGTTGCCGGT [TCGCGACCTCG_LTGcore_AC_RTGcore_AC] (site TCGCGACCTCG) (LTG core: AC, RTG core: AC) — within 0.2 log units, 0.102
- TGTATTCATTGGGTTCTAACCTGTTGCCTAT [TGTATTCCTAG_LTGcore_AT_RTGcore_AT] (site TGTATTCCTAG) (LTG core: AT, RTG core: AT) — within 0.2 log units, 0.144
- GCGGGACATTGGGTTCTAACCTGTTGCCTAG [GCGGGACCTAG_LTGcore_AT_RTGcore_CT] (site GCGGGACCTAG) (LTG core: AT, RTG core: CT) — within 0.2 log units, 0.17
- TAGAGGGTATGGGTTCTAACCTGTTGCGGTA [TAGAGGGCTCC_LTGcore_TA_RTGcore_TA] (site TAGAGGGCTCC) (LTG core: TA, RTG core: TA) — higher, 0.481
- AAACAGTTGTGGGTTCTAACCTGTTGCCTAG [AAACAGTCTAG_LTGcore_TG_RTGcore_CT] (site AAACAGTCTAG) (LTG core: TG, RTG core: CT) — within 0.2 log units, 0.029
- GGGCGTGGGTGGGTTCTAACCTGTTGCCTAG [GGGCGTGCTAG_LTGcore_GG_RTGcore_CT] (site GGGCGTGCTAG) (LTG core: GG, RTG core: CT) — within 0.2 log units, 0.188
- ATGTCCCCTTGGGTTCTAACCTGTTGCTCAA [ATGTCCCCTGA_LTGcore_CT_RTGcore_TT] (site ATGTCCCCTGA) (LTG core: CT, RTG core: TT) — within 0.2 log units, 0.0803
- GGACACCGCTGGGTTCTAACCTGTTGCCTGC [GGACACCCTAG_LTGcore_GC_RTGcore_GC] (site GGACACCCTAG) (LTG core: GC, RTG core: GC) — within 0.2 log units, 0.0534
- TGTATTCCTTGGGTTCTAACCTGTTGCCTAC [TGTATTCCTAG_LTGcore_CT_RTGcore_GT] (site TGTATTCCTAG) (LTG core: CT, RTG core: GT) — within 0.2 log units, 0.0923
- GGTGCCCTATGGGTTCTAACCTGTTGCCGTA [GGTGCCCCTCG_LTGcore_TA_RTGcore_TA] (site GGTGCCCCTCG) (LTG core: TA, RTG core: TA) — higher, 0.298

experiment: recombinant barcode read abundance after kanamycin selection (control-corrected) (log10(CPM+1)); higher = more efficient recombination; sequences stand for … in AGTGCAGAGAAAATCGGCCAGTTTTCTCTGCCTGCAGTCCGCATGCCGT…AGATTTATGCAGCGGACTGCCTTTCTCCCAAAGTGATAAACCGGACAGTATCATGGACCGGTTTTCCCGGTAATCCGTATTTGCAAGGTTGGTTTCACT; site = the 11-nt target
In short: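 Values are log10(CPM+1) from a pooled E. coli screen of targets paired with IS621 bridge RNA target-binding loops. Recombination efficiency here means counts per million of recombinant-junction barcodes, averaged and control-corrected. Plates were chloramphenicol/ampicillin LB agar for the control and chloramphenicol/ampicillin/kanamycin with 0.1 mM IPTG, two replicates each.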

Point of comparison: “CGTAAGCCTTGGGTTCTAACCTGTTGCAT (site CGCAAGCCTAT)”, “recombinant barcode read abundance (log10)” value 0.265. Against it:
- GAGCGCTCTTGGGTTCTAACCTGTTGCTG (site GAGCGCTCTGA) — within 0.2 log units, 0.207
- AAGGCCTCTTGGGTTCTAACCTGTTGCAT (site AAGGCCTCTTG) — within 0.2 log units, 0.247
- CGTCTCCCTTGGGTTCTAACCTGTTGCTT (site CGTATCCCTCA) — within 0.2 log units, 0.108
- CGGTACACTTGGGTTCTAACCTGTTGCGG (site CGGCACACTCC) — higher, 2.48
- TAGGTCGCTTGGGTTCTAACCTGTTGCAT (site TAGGTCGCTAT) — higher, 2.48
- TCTGAAACTTGGGTTCTAACCTGTTGCCT (site TCCGAAACTAT) — within 0.2 log units, 0.12
- TCCGTGTCTTGGGTTCTAACCTGTTGCCT (site TCCGTGGCTAG) — lower, 0.0597
- TGAGTGCCTTGGGTTCTAACCTGTTGCTT (site TGAGTGCCTAA) — higher, 1.1
- CTAGGCCCTTGGGTTCTAACCTGTTGCGT (site CTAGGCCCTAG) — within 0.2 log units, 0.264
- GTAACTACTTGGGTTCTAACCTGTTGCTC (site GTAACTACTGA) — higher, 0.475
- GCAAGGACTTGGGTTCTAACCTGTTGCAG (site GCAGGGACTCT) — higher, 0.76
- CTTGGAACTTGGGTTCTAACCTGTTGCCT (site CTTGGACCTAG) — within 0.2 log units, 0.242
- CTAGCGACTTGGGTTCTAACCTGTTGCAC (site AGGAGAGCTAA) — within 0.2 log units, 0.409
- GTGTGTGCTTGGGTTCTAACCTGTTGCCT (site GTGTGTTCTAG) — lower, 0.0513
- TACAGAGCTTGGGTTCTAACCTGTTGCGG (site TAAAGAGCTCC) — within 0.2 log units, 0.363
- CTCTGCTCTTGGGTTCTAACCTGTTGCTC (site CTCTGCTCTGA) — higher, 0.724
- CCTTGTACTTGGGTTCTAACCTGTTGCCT (site CTTTGTACTAG) — lower, 0.0491
- TGCCCTCCTTGGGTTCTAACCTGTTGCTT (site TGCCCTCCTAA) — within 0.2 log units, 0.0976
- GAGACTGCTTGGGTTCTAACCTGTTGCCT (site GAAACTGCTAG) — within 0.2 log units, 0.291
- CTGGGCCCTTGGGTTCTAACCTGTTGCCT (site CTGGGCCCTAG) — within 0.2 log units, 0.277
- TTCCCTACTTGGGTTCTAACCTGTTGCCT (site TTCCCTACTAG) — within 0.2 log units, 0.452
